Experimental data taken from a melting point compilation (Tetko et al.; mined from patent text by program, amines drawn as free bases though some values may be those of a salt).

melting point | SMILES
289 °C | COc1cc(C(=O)c2ncc3ccc(C(N)=O)cn23)ccc1[N+](=O)[O-]
290 to 291 °C | CC(C)Cn1c(=O)[nH]c2ncc(-c3ccc(O)cc3)nc21
122 to 123 °C | O=C(Nc1ccc(Oc2ccccc2)cc1)N1CCN(c2nccc3ccccc23)CC1
137 to 138 °C | COc1cc2c(cc1O)CCN(Cc1ccccn1)C2
184 to 188 °C | CC(C)(C)OC(=O)N1CCC(c2cnc3oc(-c4ccc(C(F)(F)F)cc4)nc3c2)CC1
167 to 168 °C | NC1=C2C=NN=C2N(c2ccccc2)CN1Cc1ccccc1
251 to 253 °C | CCN1CCN(c2cc3c(cc2F)c(=O)c(C(=O)O)cn3CC)CC1
154 to 160 °C | COc1ccc(Nc2nc(-c3cccc(C(=O)Nc4ccc(C(=O)OCc5ccccc5)cc4)c3)cn3ccnc23)cc1OC
144 to 146 °C | O=Cc1cccc(OCc2ccco2)c1
166 to 168 °C | CC(C)c1ccc(-c2nsc(-c3cccc(C(=O)O)c3)n2)cc1
78.5 to 79.5 °C | COC(C1=CN(C)CS1)c1ccccc1COc1cc(Cl)ccc1Cl (stereo not given)
65 to 67 °C | CC(Cc1c[nH]c2ccccc12)(NC(=O)OC(CF)C(F)F)C(=O)NCCc1ccccn1 (stereo not given)
107 to 109 °C | COc1ccc([C@@H]2O[C@H](CCC(=O)O)C(=O)N(Cc3ccccc3)c3ccccc32)cc1 (relative stereo)
129 to 130 °C | COc1ccc(S(=O)(=O)Nc2ccc(CCCC(=O)O)nc2)cc1
214 to 215 °C | Fc1ccc(-c2nc3ccccc3n3cncc23)cc1
151 to 152 °C | CCc1cc2c(=O)n3cc(C(=O)OC)ccc3nc2s1
138 to 141 °C | CC(=O)c1ccc2c(c1)CCc1ccc(C#N)cc1S2
139 °C | COc1cc(-n2nc(C(F)(F)F)cc2-c2ccc(-c3ccco3)cc2)ccc1S(C)(=O)=O
125 to 128 °C | CCCCC(OC)c1nc2c(N)nc3ccccc3c2n1CC(C)C (stereo not given)
117 to 120 °C | NCC1(O)c2ccccc2C=Cc2ccccc21
152 to 154 °C | CCOC(=O)c1c[nH]c2cc(C)cc(O)c12
197 °C | NC(N)=Nc1nc(N2CCOCC2)nc2ccccc12
204 °C | O[C@H]1COC(c2cc3ccccc3[nH]2)=N[C@@H]1c1ccccc1 (racemic)
196 to 198 °C | COc1ccc2c(c1)Nc1cccc(S(=O)(=O)N(C)C)c1S2
141 to 142 °C | COc1cccc(-c2cccc3c2OC(COS(=O)(=O)c2ccc(C)cc2)C3)c1 (stereo not given)

melting point | SMILES
160 to 161 °C | COc1cccc2c3c(cnc12)CCCN3c1ccccc1C
260 to 262 °C | C[C@]1(N2C(=O)c3ccc(CNC(=O)c4ccc(Br)cn4)cc3C2=O)CCC(=O)NC1=O
129 to 130 °C | Fc1ccc2c(c1)CC(CN1CCC(c3noc4cc(F)ccc34)CC1)O2 (racemic)
182 to 183 °C | Cc1c(C(=O)Nc2ccc(Oc3ccccc3)c(C#N)c2)cnn1-c1ccc(F)cc1
104 to 105 °C | CCCc1ccccc1OCCCOc1cccc(OC(=CC(=O)O)C(=O)O)c1CC
157 to 159 °C | CC(C)n1cc(-c2ccc(Oc3ccccc3)c(CO)c2)c2c(Cl)ncnc21
> 300 °C | O=C(O)c1cc2cc(O)c(O)cc2nc1C(=O)O
110 to 114 °C | Cc1ncsc1C(=O)Nc1ccc(-n2nc(C3CC3)cc2C2CC2)cc1
117 to 118 °C | COc1ccc(OC)c2c1C(=O)C=C(SCCO)C2=O
126 °C | COCCOc1ccc(CCCNS(=O)(=O)c2ccccc2[N+](=O)[O-])c(Oc2ncc(C(F)(F)F)cc2Cl)c1
138 to 139 °C | CCOc1ccc(-c2nc3c4ccccc4ccc3n2C)cc1
180 to 182 °C | O=C(c1ccccc1)c1cc2c(s1)SCCc1cc(=O)n(-c3ccc(Cl)cc3)nc1-2
107 °C | CCOc1ccc2[nH]c(=O)n(CCN3CCOCC3)c2c1
190 to 194 °C | CCN(CC)C(=O)c1c(OC)cccc1S(N)(=O)=O
125 to 140 °C | Nc1cccc(-c2ccc(CCCN3CCN(CCc4ccccc4)CC3)cc2)n1
89 to 91 °C | CCC(C)(C)c1c(OCc2ncnn2C)nn2c(-c3ccccc3F)nncc12
174 to 175 °C | COC(=O)c1ccc(NC(=O)/C=C/c2c(C)noc2-c2ccccc2)cc1
136 to 137 °C | C(=C\c1nc(COc2ccc(CCn3cncn3)cc2)co1)/c1ccccc1
130 to 134 °C | Nc1nc(Cl)c2ncn(COCCOC(=O)c3ccccc3)c2n1
168 to 169 °C | Cn1cc(-c2cc3cccnc3[nH]2)c2cc(OC3(C(=O)O)CCC3)ccc21
207 to 212 °C | Cc1cc(C2N(c3ccccc3)CCN2c2ccccc2)c(O)cc1N(C)C
103 to 106 °C | Nc1nc2c(s1)CCN(CC=Cc1ccccc1Br)CC2
158 to 160 °C | COc1nc2ccccc2cc1NC(=O)N1CCN(c2cccc3ccccc23)CC1
233 to 234 °C | CC(C)Nc1c(NCc2ccccc2)cc(C(=O)O)cc1S(N)(=O)=O
68 °C | Cc1ccc(C(=O)C=Cc2ccccc2)c(C)c1

The next lines start with the molecule.

SMILES | melting point
O=c1oc2ccc(F)cc2c(CBr)c1Br | 125 to 127 °C
CSc1nc(Cl)cc(-c2ccc(C(F)(F)F)cc2)n1 | 93 to 96 °C
CN(C)c1cc(Br)cc(S(=O)(=O)c2ccc([N+](=O)[O-])cc2)c1 | 166 to 168 °C
C#Cc1ccc(C23OCC(C4CCCCC4)(CO2)CO3)cc1 | 190 to 192 °C
CC1(C)CCC(C)(C)c2cc(C#Cc3ccc(S(C)(=O)=O)cc3)ccc21 | 153 to 155 °C
CCCCOC(=O)C1C(C(C)=O)C(=O)N1C(Cc1ccc(OC)cc1)Cc1ccc(OC)cc1 (stereo not given) | 92.5 to 94 °C
Cc1cc(-c2ccc(Cl)cc2)nnc1Cl | 230 to 233 °C
CCc1cc(C#N)ccc1N=C1OCC(C)(C)N1C1CCCC1 | 112 to 114 °C
N#Cc1cnn(CCCl)c1N | 156 °C
CC(=O)OCCCNc1cc(C)nc2cn[nH]c12 | 115 to 119 °C
CCC(=O)c1ccc(Oc2ccc(-c3scc(-c4ccccc4Cl)c3CC(=O)N=C(N)N)cc2)cc1 | 123 to 124 °C
C=Cc1ccc(COc2ccc(COC(=O)C(=O)OCC)cc2)cc1 | 93 °C
CC1(C)CCCNc2ccc([N+](=O)[O-])cc21 | 99 °C
CCc1nccn1CCCOCc1cccc(SC)c1NC(=O)CC1c2ccccc2Oc2ccccc21 | 159 to 160 °C
O=C1N(Cc2ccc(-c3cccc(Cl)c3)o2)c2ccccc2C12COc1cc3c(cc12)OCO3 (stereo not given) | 205 to 207 °C
COc1ccc(Sc2[nH]cc(C(=O)O)c2Sc2ccc(OC)cc2)cc1 | 159 to 162 °C
Cc1n[nH]c2cc(F)ccc12 | 116 to 117 °C
CCn1c(N)c(-c2nccn2COCC[Si](C)(C)C)c(=O)c2ccc(Cl)nc21 | 90 °C
Cc1ccc(N)c(C(O)(C(F)(F)F)C(F)(F)F)c1 | 110 °C
N#Cc1ccc(S(=O)(=O)N2CCN(c3ccncc3)CC2)cc1 | 212 to 213 °C
O=c1cc(-c2ccoc2)c2ccc(S)cc2o1 | 167 to 170 °C
CC(C)(CF)C(=O)C(Oc1cccc(F)n1)n1cncn1 (stereo not given) | 116 °C
CCCc1c(O)ccc2oc(Cc3ccc(O)cc3)c(C)c12 | 138 to 142 °C
CCN1C(=O)C(C)(C)C(=O)N(C)c2cc(CN(CCn3ccc4sccc4c3=O)Cc3cccnc3C)ccc21 | 139 to 140 °C
Cn1cc(-c2ccc(Cl)cc2)c(=O)c(-c2cccc(C(F)(F)F)c2)c1 | 153 to 155 °C

SMILES | melting point
CS(=O)(=O)c1ccc(C(=O)c2cnoc2C2CC2)c(C(F)(F)F)c1S(C)(=O)=O | 191 to 193 °C
CSCS[C@H](C)[C@](O)(Cn1cncn1)c1ccc(F)cc1F | 108 to 109 °C
O=C(NCc1ccc(Cl)cc1)c1cnc2ccc(Br)cc2c1O | 282 to 283 °C
Cc1cc(C(CC2CCCC2)c2ccc(S(C)(=O)=O)cc2)[nH]c1C(=O)O (stereo not given) | 127 °C
CCC(=O)Nc1c(Sc2cc(C)cc(C)c2)c(C)c[nH]c1=O | 186 to 188 °C
CS(=O)(=O)c1ccc(-c2nn(Cc3ccccc3)c(C(F)(F)F)c2-c2ccc(F)cc2)cc1 | 126 °C
O=Cc1ccc(-c2cnc3cnc(-c4ccc(O)cc4)nc3c2)cc1 | > 268 °C
O=C(NO)c1ccc(CNC(=O)c2[nH]c(-c3ccccc3)cc2-c2ccc(Cl)c(Cl)c2)cc1 | 187 to 188 °C
NC(C(=O)O)c1ccc(C(=O)O)cc1N1CCCC1 (stereo not given) | 187 to 190 °C
CC(=O)N[C@@H](CSC(=O)c1ccccc1)C(=O)NCCSC(=O)C(C)C | 137 to 138 °C
CC(=O)N(c1ccccc1)c1ccc(C(=O)CBr)cc1 | 152 to 153 °C
Nc1ccc(S(=O)(=O)Nc2nnc(CO)s2)cc1 | 89 to 90 °C
N#Cc1cccc(C(=O)Nc2cccc(C(=O)NCCC(=O)OCc3ccccc3)c2)c1 | 128 to 131 °C
Cc1cc(C)c(C(=O)O)c(C)c1C | 164 to 167 °C
Cc1ccc(C(=O)NC(NC(=NC#N)Nc2ccccc2)C(Cl)(Cl)Cl)cc1 (stereo not given) | 197 to 199 °C
NC(=O)c1ccc2[nH]cc(C3=CCNCC3)c2c1 | 225 to 230 °C
CC(=O)O[C@H]1C[C@@H](n2ncc(Cl)c(Cl)c2=O)[C@H](O)[C@@H]1O (racemic) | 119 to 122 °C
CC1(C)CC2(CC(C)(C)N1)NC(=O)N(CC(O)COc1ccc(Cc3ccc(OCC(O)CN4C(=O)NC5(CC(C)(C)NC(C)(C)C5)C4=O)cc3)cc1)C2=O (stereo not given) | 113 to 118 °C
NNc1nccc(-c2cccc(C(F)(F)F)c2)n1 | 103 to 106 °C
Cc1ccc(C2CC(C(N)=O)=NN2c2ccc(S(N)(=O)=O)cc2)cc1 (stereo not given) | 210 to 215 °C
Nc1cccc2c1CCCCC2 | 107 to 111 °C
CC(C)(C)COC(=O)C(C#N)=Cc1cc(O)c(O)c([N+](=O)[O-])c1 | 173 to 179 °C
Nc1cc(=O)n(C2CCCC2)c2nc(N[C@H]3CC[C@H](O)CC3)ncc12 | 246 to 248 °C
COP(=O)(CC(=C(c1ccc(F)cc1)c1ccc(F)cc1)n1cnnn1)OC | 133 to 134 °C
COC1=C(OC)C(=O)C(Cl)=C(C)C1=O | 66 to 68 °C
